Holding throughout (format): cell-based
Experiment [1] has as its system MCF-7 tumor spheroid. Put plainly: Inhibition of tumor spheroid growth. Conditions: MCF-7 spheroids, equivalent 0.1 µg/mL PTX, 9th day. Here is the method: (§1) MCF-7 cells and HCT116 cells were dispersed in culture medium containing 10% methylcellulose (0.24%, w/v) at a density of around 1 × 10^5 cells/mL. Twenty microliters of the above medium was equably dropped on the lid of a […] cell culture dish and incubated at 37 °C for 24 h. When the tumor spheroids were formed, they were removed to 96-well plates which were pre-coated with agarose. After incubation for 72 h, MCF-7 tumor spheroid was treated with PPP and free PTX at equivalent 0.1 µg/mL PTX and HCT116 tumor spheroid was treated with PPP and free PTX at equivalent 0.05 µg/mL PTX. […] Measured with maximum diameter (dmax) and minimum diameter (dmin), the tumor spheroid volume was calculated by the following equation: V=[…], and the negative control tumor spheroids grew up in culture medium.

In experiment [2] the test system is HCT116 tumor spheroid. The experiment in a line: Inhibition of tumor spheroid growth. Conditions: equivalent 0.05 µg/mL PTX, 9th day. The protocol:
as §1

Experiment [3] deals with MCF-7 cells. The experiment in a line: MTT cytotoxicity assay. The conditions noted are these: Homo sapiens, MCF7, 72 h, PTX concentration, n = 5. The protocol: (§2) MCF-7 cells, HCT116 cells, and 4T1 cells were seeded in 96-well plates at a density of 3 × 10^3/well. After 12 h, cancer cells were incubated with free PTX and PPP micelles with a PTX concentration from 0.001 µg/mL to 10 µg/mL in 200 µL culture mediums for 72 h. One hundred microliters of culture medium containing 10 µL MTT (5 mg/mL) was added to each well for another 4 h in the dark. The absorbance was measured at 570 nm by a microplate reader (Flexstation 3, Molecular Devices LLC, Sunnyvale, CA). Comparing treated wells with controlled wells, the cell viability was analyzed as mean ± SD (n = 5). In order to confirm the enzyme responsiveness of AAN between the mPEG and PTP-7, MTT assay was used to indirectly observe the cytotoxicity of PTP-7 cleaved by legumain. One microgram of recombinant mouse legumain (Abcam, Cambridge, UK) was activated in a buffer solution (pH 4.5) which contains 50 mM critic acid, 1 mM DTT, and 1 mM EDTA (Zhou et al., [2017]). Then, PP was dissolved in the legumain solution and incubated at 37 °C for 12 h. Next, culture medium containing 0.1–100 µg/mL of free PTP-7 or legumain treated mPEG-PTP-7 was added to cancer cells. After incubation for 24 h, the cell viability was calculated as above.
(§3) The cell lines were purchased from China Center for Type Culture Collection (Wuhan, China). MCF-7 and HCT116 cells were cultivated in DMEM and 1640 with 10% FBS and 1% PS. 4T1 cells were cultivated in 1640 containing 1% glutaMAX^TM-1, 1% MEM NEAA, 1% sodium pyruvate, 10% FBS and 1% PS. All cell lines were incubated in incubator at 37℃ and 5% CO2. All qualified mice were purchased from Hangzhou Medical College and fostered in laboratory animals and all animal experiments followed the ethical requirements set by the ethics committee of Zhejiang University of Technology (20210511034).
On the technique in general: Formazan colour is commonly taken as a measure of viable cells.

Experiment [4] has as its system HCT116 cells. Put plainly: MTT cytotoxicity assay. Conditions: Homo sapiens, HCT-116, 72 h, PTX concentration, n = 5. Here is the method: as §2, §3
Experiment [5] has as its system 4T1 cells. Put plainly: MTT cytotoxicity assay. Conditions: Mus musculus, 72 h, PTX concentration, n = 5. The protocol:
as §2, §3

Structures are written as SMILES. ≈ marks a conversion by molar mass, not a printed value.

Experimental findings from article PMC9176665, “Legumain/pH dual-responsive lytic peptide–paclitaxel conjugate for synergistic cancer therapy” (Drug Delivery, 2022) are described below.

One may read the IC50 as the concentration at which inhibition is half-maximal. The low end stands for higher potency, the high end for lower potency. Take `CC(=O)O[C@H]1C(=O)[C@@]2(C)[C@H]([C@H](OC(=O)c3ccccc3)[C@]3(O)C[C@H](OC(=O)[C@H](O)[C@@H](NC(=O)c4ccccc4)c4ccccc4)C(C)=C1C3(C)C)[C@]1(OC(C)=O)CO[C@@H]1C[C@@H]2O` [PTX, Paclitaxel]: the “inhibition of spheroids (volume)” value in experiment [1] stood at 47.88%; in experiment [2] it was 20.51%. Besides, the IC50 in experiment [3] was 0.028 µg/mL (≈ 0.0328 µM); in experiment [4] it was 0.006 µg/mL (≈ 0.00703 µM); in experiment [5] it was 0.01 µg/mL (≈ 0.0117 µM).
